Test results from patent US9234018B2, “Compositions and methods for the treatment of VprBP-related cancers” (University of Southern California, priority 2013, dated 2016).

What was measured:
[1] = Mouse pharmacokinetics of B32B3; format: in vivo; details: plasma, dose of 5 mg/kg in mice
Method: Mouse pharmacokinetic study was carried out using mice (n=5) that were fasted for 12 h prior to and 2 h after dosing with B32B3 (5 mg/kg). Blood samples were collected from orbital sinus at 10, 30, 60, 120, 240, and 480 min post dose. The plasma was separated from blood samples by centrifugation and analyzed in the Agilent 1200 HPLC system coupled to Agilent 6460A QQQ mass spectrophotometer. The plasma concentration-time data were analyzed by noncompartmental analysis using WinNonlin version 4.1 (Pharsight).

DU145 tumor xenografts = DU145 tumor xenografts in nude mice; format: in vivo
Method: All animal experiments were performed according to protocols approved by the Institutional Animal Care and Use Committee. Tumor xenografts were established by subcutaneous injection of 1 3 107 DU145 cells into 8-weekold female nude mice (n=8). At day 5 after injection, the mice bearing DU145 tumor xenografts were treated with twice-weekly i.p. injections of either DMSO or B32B3 at a dose of 5 mg/kg throughout the duration of the experiment. Tumor dimension was measured by calipers twice a week, and tumor mass was calculated as described (Heo, K. et al. (2012) Oncogene 32:2510-2520). The mice were killed by asphyxiation with CO2, and tumors were excised and weighed 25 day after the cell injection. To analyze the H2AT120p, formalin-fixed and paraffin-embedded sections ([…]) from DU145 tumor xenografts were subject to immunohistochemistry. Animal studies were conducted under approved institutional protocols.

AURKB = AURKB (Homo sapiens, UniProt Q96GD4); test: Kinase selectivity panel; format: biochemical
LCK = LCK (Homo sapiens, UniProt P06239); test: Kinase selectivity panel; format: biochemical
CHK2 = CHK2 (Homo sapiens, UniProt O96017); test: Kinase selectivity panel; format: biochemical
PRKCD = PRKCD (Homo sapiens, UniProt Q05655); test: Kinase selectivity panel; format: biochemical
CSNK1D = CSNK1D (Homo sapiens, UniProt P48730); test: Kinase selectivity panel; format: biochemical
STK33 = STK33 (Homo sapiens, UniProt Q9BYT3); test: Kinase selectivity panel; format: biochemical
[2] = tested on: VprBP target genes in DU145 cells; test: qRT-PCR of VprBP target genes; format: cell-based, human; details: B32B3 1 mM
Method: Total RNA was isolated from mock- or VprBP-depleted cells using the TRIzol reagent according to the manufacturer's instructions (Invitrogen). Gene expression microarray experiments were conducted using a whole-genome expression array (Human HT-12 v4 Expression BeadChip, Illumina). This high density oligonucleotide array chip targets more than 47000 probe sequences derived from National Center for Biotechnology Information Reference Sequence (NCBI) RefSeq Release 38 (Nov. 7, 2009) and other sources. Data were processed and analyzed by the ArrayPipe software (www.pathogenomics.ca/arraypipe). For qRT-PCR, total RNA was extracted as described for microarray and subjected to RT reactions with the use of PerfeCta® SYBR Green FastMix (Quanta BIOSCIENCES) and an iCycler IQ5 real time cycler (Bio-Rad). The specificity of the amplification reactions were monitored by melting curve analysis. Assays were normalized to β-actin mRNA levels. The following primers were used for qRT-PCR: […]

VprBP = molecular target: T1, VprBP (Homo sapiens, UniProt Q9Y4B6); test: In vitro kinase assay, VprBP (recombinant VprBP and H2A; kinase panel); format: biochemical; design: Inhibition of VprBP and H2AT120p in in vitro kinase assay (library screen): dose or concentration left out as unconfirmed
T1 construct: His (N); made in house; host or cells: Sf9 insect cells (baculovirus)
Method: Recombinant mononucleosomes and nucleosome arrays were reconstituted using recombinant histone octamers as recently described (Jaskelioff, M. et al. (2000) Mol. Cell. Biol. 20:3058-3068; Robinson, P. J. et al. (2008) J. Mol. Biol. 381:816-825). For kinase assays, recombinant VprBP was incubated with free histones ([…]) or reconstituted nucleosomes ([…]) in kinase buffer (50 mM Tris-HCl [pH 7.5], 20 mM EGTA, 10 mM MgCl2, 1 mM DTT, and 1 mM b-glycerophosphate) containing 10 mCi of [g-32P] ATP and 4 mM ATP for 30 min at 30_C. Proteins from each reaction were separated by SDS-PAGE, Coomassie blue stained, dried, and visualized by autoradiography. To create VprBP inhibitors, a collection of 5,000 compounds was screened in the same kinase assays at a final concentration […]. In vitro transcription assays were as described (Kim, K. et al. (2012) Mol. Cell. Biol. 32:783-796), except that G5ML-601 nucleosome arrays (100 ng) and Gal4-VP16 (15 ng) were used for the reactions. Recombinant VprBP (25 or 50 ng) and ATP (10 mM) were added before p300 (20 ng) and AcCoA (10 mM).

CDK18 = CDK18 (Homo sapiens, UniProt Q07002); test: Kinase selectivity panel; format: biochemical
ATM = ATM (Homo sapiens, UniProt Q13315); test: Kinase selectivity panel; format: biochemical
PKM2 = PKM2 (Homo sapiens, UniProt P14618); test: Kinase selectivity panel; format: biochemical
PLK1 = PLK1 (Homo sapiens, UniProt P53350); test: Kinase selectivity panel; format: biochemical
AKT1 = AKT1 (Homo sapiens, UniProt P31749); test: Kinase selectivity panel; format: biochemical
[3] = tested on: H2AT120p and VprBP at target genes in DU145 cells; test: Chromatin immunoprecipitation (ChIP) at VprBP target genes; format: cell-based, human; details: B32B3 1 mM
Method: Mock-depleted or VprBP-depleted DU145 cells were grown to 70-80% confluence, cross-linked with 1% formaldehyde for 10 min, and processed for ChIP as recently described (Kim, K. et al. (2012) Mol. Cell Biol. 32:783-796). […] All samples were run in triplicate and results were averaged. Sequences of the primers used for quantitative real time PCR (qPCR) are as follows: […]

BUB1 = BUB1 (Homo sapiens, UniProt O43683); test: Kinase selectivity panel; format: biochemical
BUB1, sequence (O43683 whole entry): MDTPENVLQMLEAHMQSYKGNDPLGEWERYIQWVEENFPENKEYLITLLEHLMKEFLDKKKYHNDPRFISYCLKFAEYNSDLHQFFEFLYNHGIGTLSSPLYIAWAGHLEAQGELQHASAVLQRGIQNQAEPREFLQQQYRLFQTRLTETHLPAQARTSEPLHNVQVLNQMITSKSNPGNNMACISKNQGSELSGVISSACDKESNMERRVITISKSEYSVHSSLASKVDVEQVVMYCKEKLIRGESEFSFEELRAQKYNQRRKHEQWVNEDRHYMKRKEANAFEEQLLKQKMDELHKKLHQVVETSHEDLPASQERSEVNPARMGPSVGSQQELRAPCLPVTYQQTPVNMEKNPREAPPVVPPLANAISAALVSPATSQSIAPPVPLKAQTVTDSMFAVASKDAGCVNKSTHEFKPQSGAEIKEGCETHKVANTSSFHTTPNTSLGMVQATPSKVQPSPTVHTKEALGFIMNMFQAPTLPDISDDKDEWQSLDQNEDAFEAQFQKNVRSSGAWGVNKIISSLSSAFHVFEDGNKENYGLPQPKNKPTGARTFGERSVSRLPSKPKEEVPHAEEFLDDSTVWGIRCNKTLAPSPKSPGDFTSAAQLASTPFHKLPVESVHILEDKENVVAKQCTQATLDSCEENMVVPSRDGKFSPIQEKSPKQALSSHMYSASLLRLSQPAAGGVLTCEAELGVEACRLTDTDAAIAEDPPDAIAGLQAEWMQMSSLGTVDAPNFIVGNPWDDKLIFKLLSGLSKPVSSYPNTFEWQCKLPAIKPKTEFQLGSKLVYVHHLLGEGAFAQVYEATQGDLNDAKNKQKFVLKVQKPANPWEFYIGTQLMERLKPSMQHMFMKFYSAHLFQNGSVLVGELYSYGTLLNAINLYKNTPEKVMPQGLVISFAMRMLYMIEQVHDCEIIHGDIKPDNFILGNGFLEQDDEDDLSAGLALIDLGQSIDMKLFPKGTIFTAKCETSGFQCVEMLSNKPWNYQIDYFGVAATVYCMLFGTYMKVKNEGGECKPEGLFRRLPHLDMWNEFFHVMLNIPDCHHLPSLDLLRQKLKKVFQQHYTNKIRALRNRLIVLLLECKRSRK

T1 sequence (Q9Y4B6 whole entry): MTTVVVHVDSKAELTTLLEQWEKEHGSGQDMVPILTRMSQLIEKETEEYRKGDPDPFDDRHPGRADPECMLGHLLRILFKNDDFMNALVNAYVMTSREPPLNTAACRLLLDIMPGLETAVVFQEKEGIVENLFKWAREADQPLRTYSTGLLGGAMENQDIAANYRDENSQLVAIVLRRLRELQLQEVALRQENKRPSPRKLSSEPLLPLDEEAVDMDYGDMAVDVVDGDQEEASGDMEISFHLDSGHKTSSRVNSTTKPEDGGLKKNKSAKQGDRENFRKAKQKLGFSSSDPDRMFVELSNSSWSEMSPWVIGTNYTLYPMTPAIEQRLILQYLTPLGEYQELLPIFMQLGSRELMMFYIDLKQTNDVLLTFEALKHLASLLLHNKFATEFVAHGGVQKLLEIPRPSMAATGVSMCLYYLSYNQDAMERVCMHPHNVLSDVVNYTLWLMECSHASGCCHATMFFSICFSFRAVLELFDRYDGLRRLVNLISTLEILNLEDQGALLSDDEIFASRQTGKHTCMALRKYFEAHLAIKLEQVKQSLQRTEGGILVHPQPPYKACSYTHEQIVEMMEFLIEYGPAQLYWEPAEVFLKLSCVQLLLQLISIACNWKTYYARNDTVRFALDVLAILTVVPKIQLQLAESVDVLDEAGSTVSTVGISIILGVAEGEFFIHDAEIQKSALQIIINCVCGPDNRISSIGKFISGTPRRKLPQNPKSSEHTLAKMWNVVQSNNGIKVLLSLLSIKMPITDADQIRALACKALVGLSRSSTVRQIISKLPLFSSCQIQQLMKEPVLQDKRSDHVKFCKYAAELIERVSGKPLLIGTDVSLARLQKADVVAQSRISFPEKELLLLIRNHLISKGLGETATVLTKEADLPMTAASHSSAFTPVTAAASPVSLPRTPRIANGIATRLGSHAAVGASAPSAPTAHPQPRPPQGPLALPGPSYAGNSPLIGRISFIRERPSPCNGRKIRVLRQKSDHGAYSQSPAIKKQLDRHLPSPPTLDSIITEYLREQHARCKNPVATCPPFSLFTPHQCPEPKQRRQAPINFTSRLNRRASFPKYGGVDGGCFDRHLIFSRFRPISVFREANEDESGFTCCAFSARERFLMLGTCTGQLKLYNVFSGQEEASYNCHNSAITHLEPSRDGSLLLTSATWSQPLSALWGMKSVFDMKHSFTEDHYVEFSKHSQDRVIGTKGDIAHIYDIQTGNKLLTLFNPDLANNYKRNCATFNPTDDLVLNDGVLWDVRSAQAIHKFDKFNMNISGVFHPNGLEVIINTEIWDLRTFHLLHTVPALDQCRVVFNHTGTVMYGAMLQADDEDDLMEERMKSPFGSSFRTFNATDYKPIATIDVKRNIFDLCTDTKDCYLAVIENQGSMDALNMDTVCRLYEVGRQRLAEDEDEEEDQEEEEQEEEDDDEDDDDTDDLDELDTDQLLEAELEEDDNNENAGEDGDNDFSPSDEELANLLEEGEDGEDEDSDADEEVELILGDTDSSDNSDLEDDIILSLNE
CDK18, sequence (Q07002 whole entry): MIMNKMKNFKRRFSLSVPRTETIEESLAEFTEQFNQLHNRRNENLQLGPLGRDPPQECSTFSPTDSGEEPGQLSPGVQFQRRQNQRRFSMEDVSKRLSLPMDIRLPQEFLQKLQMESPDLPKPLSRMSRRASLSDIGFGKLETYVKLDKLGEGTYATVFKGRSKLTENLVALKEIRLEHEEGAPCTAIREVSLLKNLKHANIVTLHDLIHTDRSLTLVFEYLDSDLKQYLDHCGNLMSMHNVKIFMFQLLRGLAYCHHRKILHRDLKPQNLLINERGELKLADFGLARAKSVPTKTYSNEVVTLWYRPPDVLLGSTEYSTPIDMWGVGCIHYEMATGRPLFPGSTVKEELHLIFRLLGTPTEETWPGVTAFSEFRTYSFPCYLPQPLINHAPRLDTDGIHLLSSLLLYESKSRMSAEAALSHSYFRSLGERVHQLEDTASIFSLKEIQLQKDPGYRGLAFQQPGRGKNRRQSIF
AKT1, sequence (P31749 whole entry): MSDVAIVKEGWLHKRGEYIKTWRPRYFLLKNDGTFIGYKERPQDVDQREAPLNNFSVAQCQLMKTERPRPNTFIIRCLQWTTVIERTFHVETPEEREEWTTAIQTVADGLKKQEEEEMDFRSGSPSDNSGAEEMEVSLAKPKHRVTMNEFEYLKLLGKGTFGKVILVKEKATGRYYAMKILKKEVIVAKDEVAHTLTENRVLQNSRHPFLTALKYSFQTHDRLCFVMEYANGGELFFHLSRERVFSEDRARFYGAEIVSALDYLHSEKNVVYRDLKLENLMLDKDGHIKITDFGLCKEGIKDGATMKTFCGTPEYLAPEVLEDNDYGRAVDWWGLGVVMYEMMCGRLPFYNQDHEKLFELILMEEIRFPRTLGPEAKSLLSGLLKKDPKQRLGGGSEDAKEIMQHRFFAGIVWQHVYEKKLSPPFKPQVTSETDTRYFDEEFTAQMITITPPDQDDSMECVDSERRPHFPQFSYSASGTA
AURKB, sequence (Q96GD4 whole entry): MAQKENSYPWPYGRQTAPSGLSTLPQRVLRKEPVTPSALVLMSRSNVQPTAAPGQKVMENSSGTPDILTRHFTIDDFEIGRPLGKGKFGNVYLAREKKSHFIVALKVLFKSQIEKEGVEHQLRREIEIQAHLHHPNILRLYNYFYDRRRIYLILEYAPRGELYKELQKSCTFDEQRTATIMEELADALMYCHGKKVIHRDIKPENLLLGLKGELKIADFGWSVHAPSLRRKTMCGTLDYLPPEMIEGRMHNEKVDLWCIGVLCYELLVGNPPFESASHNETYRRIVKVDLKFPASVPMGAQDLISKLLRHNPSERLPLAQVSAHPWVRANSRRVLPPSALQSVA
LCK, sequence (P06239 whole entry): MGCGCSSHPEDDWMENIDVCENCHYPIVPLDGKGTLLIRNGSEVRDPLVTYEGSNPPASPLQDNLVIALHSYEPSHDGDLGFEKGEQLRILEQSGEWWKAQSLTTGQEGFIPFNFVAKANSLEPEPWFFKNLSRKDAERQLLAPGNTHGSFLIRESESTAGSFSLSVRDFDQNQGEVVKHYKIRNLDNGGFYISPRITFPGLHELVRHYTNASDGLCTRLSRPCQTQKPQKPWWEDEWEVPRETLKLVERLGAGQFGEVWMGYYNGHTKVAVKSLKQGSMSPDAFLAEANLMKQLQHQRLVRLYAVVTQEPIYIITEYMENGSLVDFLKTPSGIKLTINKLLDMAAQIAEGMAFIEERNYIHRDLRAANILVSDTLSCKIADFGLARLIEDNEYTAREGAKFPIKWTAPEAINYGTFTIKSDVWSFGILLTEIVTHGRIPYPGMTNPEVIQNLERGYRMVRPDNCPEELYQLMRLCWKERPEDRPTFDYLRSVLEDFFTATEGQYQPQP
PRKCD, sequence (Q05655 whole entry): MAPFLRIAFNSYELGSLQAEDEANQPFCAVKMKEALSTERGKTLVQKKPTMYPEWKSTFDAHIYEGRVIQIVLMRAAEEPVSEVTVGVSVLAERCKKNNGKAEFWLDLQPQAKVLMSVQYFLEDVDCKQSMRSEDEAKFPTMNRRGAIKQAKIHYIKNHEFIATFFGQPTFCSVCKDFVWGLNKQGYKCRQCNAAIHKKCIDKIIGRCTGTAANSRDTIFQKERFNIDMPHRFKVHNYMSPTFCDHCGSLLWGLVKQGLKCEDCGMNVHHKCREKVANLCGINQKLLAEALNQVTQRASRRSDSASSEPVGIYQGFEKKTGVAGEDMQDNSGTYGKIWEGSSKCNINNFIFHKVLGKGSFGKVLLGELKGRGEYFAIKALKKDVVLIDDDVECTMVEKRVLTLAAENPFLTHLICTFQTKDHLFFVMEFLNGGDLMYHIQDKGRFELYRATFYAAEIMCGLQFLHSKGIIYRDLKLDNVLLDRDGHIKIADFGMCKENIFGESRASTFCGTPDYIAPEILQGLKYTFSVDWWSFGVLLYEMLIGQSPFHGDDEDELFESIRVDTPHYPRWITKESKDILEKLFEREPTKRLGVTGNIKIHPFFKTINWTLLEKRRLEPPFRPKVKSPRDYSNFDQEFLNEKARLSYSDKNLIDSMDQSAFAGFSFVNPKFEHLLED

c1ccc2c(CNNc3ncnc4sc5c(c34)CCCC5)c[nH]c2c1 [B32B3]
Cmax [1]: 1000 nM | Tumor growth inhibition (DU145 tumor xenografts; 5 mg/kg i.p. twice a week over 3 weeks, calculated the day after the last treatment): 70%-75% | Body weight loss during treatment (DU145 tumor xenografts; 5 mg/kg i.p. twice weekly): did not cause any significant weight loss | Tolerability in mice (DU145 tumor xenografts; 5 mg/kg i.p. twice weekly): well tolerated | Levels of H2AT120p in xenograft tumors (immunohistochemistry) (DU145 tumor xenografts; compared to DMSO-treated controls): greatly decreased | IC50 (AURKB): > 10 µM | IC50 (LCK): > 10 µM | IC50 (CHK2): > 10 µM | IC50 (PRKCD): > 10 µM | IC50 (CSNK1D): > 10 µM | IC50 (STK33): > 10 µM | Expression of VprBP target genes [2]: higher expression of VprBP target genes | Selectivity for VprBP over 33 other kinases (VprBP; panel of 33 human kinases): greater than 100 fold | IC50 (VprBP; panel of 33 human kinases, read-out: IC50 for VprBP as stated in text): 0.6 µM | Inhibition of VprBP and H2AT120p in in vitro kinase assay (library screen) (VprBP; recombinant H2A and VprBP, western blotting with H2AT120p antibody): inhibited VprBP and decreased H2AT120p | IC50 (CDK18): > 10 µM | IC50 (ATM): > 10 µM | IC50 (PKM2): > 10 µM | IC50 (PLK1): > 10 µM | IC50 (AKT1): > 10 µM | Reduction of H2AT120p at promoter and coding regions of target genes [3]: 70% | VprBP levels at promoter and coding regions of target genes [3]: did not alter | IC50 (BUB1): > 10 µM
